From US20180140602A1, “COMBINATION OF CHIMERIC ANTIGEN RECEPTOR THERAPY AND AMINO PYRIMIDINE DERIVATIVES” (Novartis AG, priority 2015, published 2018)
“Also recorded” adds a separate entry of the source.

What was measured:
CART19 cells [1] = test: level of circulating CART19 cells under ibrutinib treatment (Example 42); format: in vivo; conditions: data shown in Example 42
RL cells [2] = test: MTT assay, sensitivity to ibrutinib; format: cell-based; conditions: Homo sapiens, read-out: IC50, inhibition of proliferation
Jeko-1 cells [3] = test: MTT assay, sensitivity to ibrutinib; format: cell-based; conditions: Homo sapiens; Jeko-1, MTT assay; read-out: IC50, inhibition of proliferation
Mino cells = test: MTT assay, sensitivity to ibrutinib; format: cell-based; conditions: Homo sapiens, read-out: IC50, inhibition of proliferation
RL cells [4] = test: Sensitivity to ibrutinib by reduction of bioluminescence; format: cell-based, human; conditions: 0.1 nM to 10 μM
Jeko-1 cells [5] = test: as above; format: cell-based, human; conditions: 0.1 nM to 10 μM
MCL-RL cells = test: MCL-RL systemic xenograft model in NSG mice; format: in vivo
ITK = target: T1, ITK (Homo sapiens, UniProt Q08881); test: ITK phosphorylation (pITK-Y180) in stimulated CART19 cells; format: cell-based
T1 sequence (Q08881 1-620): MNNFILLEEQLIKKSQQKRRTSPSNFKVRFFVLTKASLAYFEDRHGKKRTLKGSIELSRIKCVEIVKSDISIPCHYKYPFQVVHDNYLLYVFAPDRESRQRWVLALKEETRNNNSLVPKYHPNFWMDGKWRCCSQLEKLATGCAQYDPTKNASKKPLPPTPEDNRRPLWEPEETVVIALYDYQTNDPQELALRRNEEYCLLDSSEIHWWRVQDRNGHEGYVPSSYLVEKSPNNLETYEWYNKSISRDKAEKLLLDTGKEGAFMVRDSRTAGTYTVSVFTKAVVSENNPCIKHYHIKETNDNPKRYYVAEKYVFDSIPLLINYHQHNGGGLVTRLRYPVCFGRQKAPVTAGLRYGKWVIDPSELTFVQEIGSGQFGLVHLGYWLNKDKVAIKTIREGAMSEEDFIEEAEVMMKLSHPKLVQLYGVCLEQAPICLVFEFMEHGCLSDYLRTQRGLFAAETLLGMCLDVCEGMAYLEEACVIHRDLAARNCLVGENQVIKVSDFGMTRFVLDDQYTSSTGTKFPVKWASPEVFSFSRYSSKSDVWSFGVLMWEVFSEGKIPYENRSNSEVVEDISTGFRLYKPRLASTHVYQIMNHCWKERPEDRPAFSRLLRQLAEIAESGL
Description: See Dubovsky et al. Blood 122.15(2013):2539-49.

MCL = MCL treated with ibrutinib monotherapy; cited from earlier work
CART19 cells [6] = conditions: supra-physiologic concentrations
mantle cell lymphoma = conditions: MCL patients; cited from earlier work
[7] = patients; cited from earlier work

## C=CC(=O)N1CCC[C@@H](n2nc(-c3ccc(Oc4ccccc4)cc3)c3c(N)ncnc32)C1 [ibrutinib, 1-[(3R)-3-[4-Amino-3-(4-phenoxyphenyl)-1H-pyrazolo[3,4-d]pyrimidin-1-yl]piperidin-1-yl]prop-2-en-1-one]
CART19 cells [1]
  level of circulating CART19 cells: increases the level of circulating CART19 cells
RL cells [2]
  IC50: 0.01 µM
Jeko-1 cells [3]
  IC50: ≤ 10 µM
Mino cells
  IC50: ≤ 10 µM
RL cells [4]
  sensitivity to ibrutinib (reduction of bioluminescence): sensitive to ibrutinib treatment in a dose-dependent manner
Jeko-1 cells [5]
  sensitivity to ibrutinib (reduction of bioluminescence): resistant to ibrutinib treatment
MCL-RL cells; 25 mg/kg/day
  median overall survival: 81 days
MCL-RL cells; 125 mg/kg/day
  median overall survival: 100 days
MCL-RL cells; MCL-RL engrafted NSG mice
  effect on tumor burden / tumor growth (bioluminescence): dose-related sensitivity; also recorded: modestly delayed tumor growth at early time points
ITK; non-specific stimulation via the TCR
  phosphorylated ITK (pITK-Y180): reduction in phosphorylated ITK
ITK; specific stimulation via the CAR
  ITK activation: did not lead to diminished ITK activation
MCL
  median duration of response: about 17.5 months
CART19 cells [6]
  effect on CART19 cell functions: inhibition of CART19 cell functions
Mantle cell lymphoma
  duration of median response: 17.5 months
  patients who do not respond: about 30%
[7]
  mean peak concentration in serum: 100 to 150 ng/mL
